≈ marks a conversion by molar mass, not a printed value. Calls of active or inactive are those of the source. The calls are words filed in the database; no cut-off is given here.

By MIC is commonly meant the lowest concentration that inhibits growth of the organism. Read a low MIC as a more susceptible organism.

Data set [1] has as its system Candida albicans. The data set is described as follows: Antifungal activity against fluconazole/ITC-resistant Candida albicans ATCC 10231 measured after 48 hrs by CLSI M27-A3 protocol based method. The format is functional. The note with it: ATCC 10231, 48 h.
For data set [2], the system named is Candida albicans. The data set is described as follows: Antifungal activity against fluconazole/ITC-resistant Candida albicans ATCC 64124 measured after 48 hrs by CLSI M27-A3 protocol based method. The format is functional. The note with it: ATCC 64124, 48 h.
For data set [3], the system named is Candida albicans. As to the kind of experiment: Antifungal activity against fluconazole/ITC-resistant Candida albicans ATCC 90819 measured after 48 hrs by CLSI M27-A3 protocol based method. To be noted: ATCC 90819, 48 h. The format is functional.
Data set [4] deals with Candida albicans. As to the kind of experiment: Antifungal activity against fluconazole/ITC-susceptible Candida albicans ATCC MYA-2310 measured after 48 hrs by CLSI M27-A3 protocol based method. The format is functional. The note with it: ATCC MYA-2310, 48 h.
Data set [5] deals with Candida albicans. The data set is described as follows: Antifungal activity against fluconazole/ITC-resistant Candida albicans ATCC MYA-1237 measured after 48 hrs by CLSI M27-A3 protocol based method. The format is functional. The note with it: ATCC MYA-1237, 48 h.
The next data set has as its system Candida parapsilosis. As to the kind of experiment: Antifungal activity against Candida parapsilosis ATCC 22019 measured after 48 hrs by CLSI M27-A3 protocol based method. The format is functional. To be noted: Lodderomyces parapsilosis, ATCC 22019, 48 h.
The next data set deals with Aspergillus flavus. As to the kind of experiment: Antifungal activity against Aspergillus flavus ATCC MYA-3631 measured after 48 hrs by CLSI M38-A2 protocol based method. The format is functional. To be noted: ATCC MYA-3631, 48 h.
The subject of the next data set is Aspergillus nidulans. The data set is described as follows: Antifungal activity against Aspergillus nidulans ATCC 38163 measured after 48 hrs by CLSI M38-A2 protocol based method. The format is functional. The note with it: ATCC 38163, 48 h.
The next data set deals with Aspergillus terreus. The data set is described as follows: Antifungal activity against Aspergillus terreus ATCC MYA-3633 measured after 48 hrs by CLSI M38-A2 protocol based method. It is filed as functional. To be noted: ATCC MYA-3633, 48 h.
Data set [6] concerns Candida albicans. As to the kind of experiment: Antibiofilm activity against fluconazole/ITC-resistant Candida albicans ATCC 10231 assessed as reduction in sessile growth after 24 hrs by XTT assay. The format is functional. The note with it: ATCC 10231, 24 h.
Data set [7] deals with Candida albicans. The data set is described as follows: Antibiofilm activity against fluconazole/ITC-resistant Candida albicans ATCC 64124 assessed as reduction in sessile growth after 24 hrs by XTT assay. The note with it: ATCC 64124, 24 h. The format is functional. For orientation: Formazan colour is commonly taken as a measure of viable cells.
Data set [8] is described as follows: Hemolytic activity in mouse RBC at […] after 1 hr relative to control. Further: tested at 0.48 µg/mL. The format is ADME, cell-based, Erythrocyte. To be noted: red blood cells (erythrocytes), read-out: Activity.
Data set [9] can be described thus: Hemolytic activity in mouse RBC at […] ug/ml after 1 hr relative to control. The format is ADME, cell-based, Erythrocyte. To be noted: red blood cells (erythrocytes), read-out: Activity.
A short description of data set [10]: Hemolytic activity in mouse RBC at 1.95 ug/ml after 1 hr relative to control. The note with it: red blood cells (erythrocytes), read-out: Activity. It is filed as ADME, cell-based, Erythrocyte.
Data set [11] can be described thus: Hemolytic activity in mouse RBC at 3.9 ug/ml after 1 hr relative to control. To be noted: red blood cells (erythrocytes), read-out: Activity. It is filed as ADME, cell-based, Erythrocyte.
Data set [12] in a line: Hemolytic activity in mouse RBC at 7.8 ug/ml after 1 hr relative to control. The format is ADME, cell-based, Erythrocyte. The note with it: red blood cells (erythrocytes), read-out: Activity.
A short description of data set [13]: Hemolytic activity in mouse RBC at 31.3 ug/ml after 1 hr relative to control. The format is ADME, cell-based, Erythrocyte. To be noted: red blood cells (erythrocytes), read-out: Activity.
In data set [14] the test system is Candida albicans. As to the kind of experiment: Fungicidal activity against fluconazole/ITC-resistant Candida albicans ATCC 10231 assessed as reduction in fungal growth at 0.5 to 2 times MIC incubated for 24 hrs followed by replating on PDA plates measured after 48 hrs Time-Kill assay. The format is functional, organism-based.

On to `C[C@@H](c1ncncc1F)[C@](O)(Cn1cncn1)c1ccc(F)cc1F` [VORICONAZOLE], for which the MIC is 0.975 µg/mL (≈ 2.79 µM) against Candida albicans [1]; 0.24 µg/mL (≈ 0.687 µM) against Candida albicans [2]; 0.12 µg/mL (≈ 0.344 µM) against Candida albicans [3]; 0.12 µg/mL (≈ 0.344 µM) in the data set with Candida albicans [4]; 0.24 µg/mL (≈ 0.687 µM) in the data set on Candida albicans [5]; 1.95 µg/mL (≈ 5.58 µM) against Candida parapsilosis. Besides, the MIC with Aspergillus flavus, with Aspergillus nidulans and in the data set on Aspergillus terreus was above 31.3 µg/mL each time. Moreover, the MIC50 in the data set on Candida albicans [6] and in the data set with Candida albicans [7] was 16 µg/mL (≈ 45.8 µM) in each case. The MIC90 with Candida albicans [6] and in the data set on Candida albicans [7] was above 32 µg/mL in each case. The hemolysis at 1 h, […] in data set [8] was determined as 8.7%. Further, the hemolysis at 1 h, 15.6 ug/ml in data set [9] (at 15.6 µg/mL) was found to be 2.8%. In addition, the hemolysis at 1 h, 0.975 ug/ml in data set [9] worked out at 10.3%. The hemolysis at 1 h, 1.95 ug/ml in [10] was found to be 6.3%. In addition, in data set [11], the hemolysis at 1 h, 3.9 ug/ml was determined as 7.5%. In addition, the hemolysis at 1 h, 7.8 ug/ml in data set [12] stood at 11.4%. The hemolysis at 1 h, 31.3 ug/ml in data set [13] is 83%. For the same compound, the outcome in the data set with Candida albicans [14] was Active.
